Source: the NIST ThermoML archive (doi:10.1016/j.jct.2006.01.009)
Numbers after ± are expanded uncertainties.

What was measured:
[1] = 308.15 K, 101 kPa, Liquid; for speed of sound: Linear variable-path acoustic interferometer
[2] = xn = mol fraction of the nth substance listed; conditions: 308.15 K, 101 kPa, Liquid; for speed of sound: Linear variable-path acoustic interferometer

CC(=O)c1ccc(Cl)cc1 [4'-chloroacetophenone]
[1]
Conditions	mass density [kg/m3]	speed of sound [m/s]
–	1181.3 ± 11	1390 ± 8.5

CC(=O)c1ccc(Cl)cc1 [4'-chloroacetophenone] + CC#N
[2]
Conditions	mass density [kg/m3]	speed of sound [m/s]
x1 = 0.092	857.2 ± 7.2	1256 ± 7.7
x1 = 0.1488	900.3 ± 7.7	1266 ± 7.7
x1 = 0.2128	941.5 ± 8.1	1278 ± 7.8
x1 = 0.2863	982.6 ± 8.5	1292 ± 7.9
x1 = 0.3792	1025.8 ± 9	1310 ± 8
x1 = 0.4876	1077.5 ± 9.5	1330 ± 8.1
x1 = 0.6196	1106.9 ± 9.8	1350 ± 8.3
x1 = 0.7847	1145 ± 10	1372 ± 8.4
x1 = 1	1181.3 ± 11	1390 ± 8.5

CC(=O)c1ccc(C)cc1 [4'-methylacetophenone]
[1]
Conditions	mass density [kg/m3]	speed of sound [m/s]
–	996.3 ± 2.5	1438 ± 8.8

CC(=O)c1ccc(C)cc1 [4'-methylacetophenone] + CC#N
[2]
Conditions	mass density [kg/m3]	speed of sound [m/s]
x1 = 0.0872	816 ± 1.9	1272 ± 7.8
x1 = 0.1449	841.6 ± 1.9	1288 ± 7.9
x1 = 0.2088	865.3 ± 2	1305 ± 8
x1 = 0.2823	888.1 ± 2.1	1323 ± 8.1
x1 = 0.3756	912.4 ± 2.1	1344 ± 8.2
x1 = 0.4771	934 ± 2.2	1365 ± 8.3
x1 = 0.6125	955.6 ± 2.3	1389 ± 8.5
x1 = 0.7811	976.1 ± 2.4	1413 ± 8.6
x1 = 1	996.3 ± 2.5	1438 ± 8.8

CC#N [acetonitrile]
[1]
Conditions	mass density [kg/m3]	speed of sound [m/s]
–	770.6 ± 1.7	1239 ± 7.6

CC#N [acetonitrile] + CC(=O)c1ccc(C)cc1
[2], x2 = 0
Conditions	mass density [kg/m3]	speed of sound [m/s]
–	770.6 ± 1.7	1239 ± 7.6

CC#N [acetonitrile] + CC(=O)c1ccc(Cl)cc1
[2], x2 = 0
Conditions	mass density [kg/m3]	speed of sound [m/s]
–	770.6 ± 6.4	1239 ± 7.6

CC#N [acetonitrile] + CC(=O)c1ccccc1
[2], x2 = 0
Conditions	mass density [kg/m3]	speed of sound [m/s]
–	770.6 ± 1.7	1239 ± 7.6

CC#N [acetonitrile] + CCC(=O)c1ccccc1
[2], x2 = 0
Conditions	mass density [kg/m3]	speed of sound [m/s]
–	770.6 ± 1.7	1239 ± 7.6

CC(=O)c1ccccc1 [acetophenone]
[1]
Conditions	mass density [kg/m3]	speed of sound [m/s]
–	1020 ± 2.5	1445 ± 8.8

CC(=O)c1ccccc1 [acetophenone] + CC#N
[2]
Conditions	mass density [kg/m3]	speed of sound [m/s]
x1 = 0.048	796.8 ± 1.8	1254 ± 7.7
x1 = 0.1023	823.3 ± 1.9	1268 ± 7.7
x1 = 0.1626	849.3 ± 2	1284 ± 7.8
x1 = 0.2321	874.7 ± 2	1303 ± 8
x1 = 0.3113	900 ± 2.1	1327 ± 8.1
x1 = 0.4024	924.7 ± 2.2	1351 ± 8.3
x1 = 0.5125	949.3 ± 2.3	1374 ± 8.4
x1 = 0.6426	972.2 ± 2.3	1395 ± 8.5
x1 = 0.8018	995.6 ± 2.4	1417 ± 8.7
x1 = 1	1020 ± 2.5	1445 ± 8.8

CCC(=O)c1ccccc1 [ethyl phenyl ketone]
[1]
Conditions	mass density [kg/m3]	speed of sound [m/s]
–	1000.6 ± 2.5	1432 ± 8.8

CCC(=O)c1ccccc1 [ethyl phenyl ketone] + CC#N
[2]
Conditions	mass density [kg/m3]	speed of sound [m/s]
x1 = 0.0418	793.4 ± 1.8	1250 ± 7.6
x1 = 0.0922	817.8 ± 1.9	1264 ± 7.7
x1 = 0.1459	841.2 ± 1.9	1279 ± 7.8
x1 = 0.2084	864.9 ± 2	1296 ± 7.9
x1 = 0.2864	889.8 ± 2.1	1314 ± 8
x1 = 0.3757	913.6 ± 2.2	1335 ± 8.2
x1 = 0.4796	936 ± 2.2	1357 ± 8.3
x1 = 0.6093	957.5 ± 2.3	1381 ± 8.4
x1 = 0.7791	978.6 ± 2.4	1406 ± 8.6
x1 = 1	1000.6 ± 2.5	1432 ± 8.8
